{"source": "paper PMC3898920", "about": "(PLoS ONE, 2014)", "key": {"[1]": {"assay": "Steady-state plasma pharmacokinetics of rifabutin and 25-O-desacetylrifabutin, alone and with lopinavir/ritonavir", "settings": "for AUC: AUCτ; for C0: pre-dose"}, "[2]": {"settings": "co-administered RMP; trial protocol background; cited from earlier work"}, "[3]": {"assay": "Plasma lopinavir and ritonavir pharmacokinetics during rifabutin co-administration", "settings": "for Effect of the different doses of rifabutin on plasma concentrations: rifabutin 150 mg OD vs 150 mg TPW"}, "[4]": {"parameters": "method as in earlier work", "settings": "study from the University of Cape Town; trial protocol background; cited from earlier work"}, "[5]": {"assay": "Adverse events during the trial"}, "[6]": {"settings": "South Africa, cited from earlier work"}, "[7]": {"settings": "rifabutin 150 mg OD with lopinavir/ritonavir, end of dosing interval 24 h, median (range)"}, "[8]": {"settings": "rifabutin 150 mg OD with lopinavir/ritonavir, median (range)"}, "[9]": {"settings": "rifabutin 150 mg TPW plus LPV/r vs rifabutin 300 mg OD alone"}, "[10]": {"settings": "rifabutin 150 mg TPW with lopinavir/ritonavir, median (range)"}, "[11]": {"settings": "rifabutin 300 mg OD alone, median (range)"}, "[12]": {"settings": "All patients, pooled whatever the RBT dosing, median (range)"}, "[13]": {"settings": "LPV/r 400 mg/100 mg twice daily with RBT 150 mg OD, median (range)"}, "[14]": {"settings": "rifabutin 150 mg OD plus LPV/r vs rifabutin 300 mg OD alone"}, "[15]": {"settings": "LPV/r 400 mg/100 mg twice daily with RBT 150 mg TPW, median (range)"}}, "data": [{"compound": "25-O-desacetylrifabutin [25-O desacetyl rifabutin]", "values": [{"measurement": "Cmin n = 15", "setting": "[1]; [7]", "result": "114 (73 – 253) ng/mL"}, {"measurement": "Cmin n = 25", "setting": "[1]; [7]", "result": "115 (59 – 253) ng/mL"}, {"measurement": "Tmax", "setting": "[1]; [8]", "result": "4 (2 – 8) h"}, {"measurement": "C0 geometric mean ratio (90% CI)", "setting": "[1]; [9]", "result": "4.35 (3.14;6.02)"}, {"measurement": "Cmin n = 15", "setting": "[1]; rifabutin 150 mg TPW with lopinavir/ritonavir, end of dosing interval 48 h, median (range)", "result": "67 (11 – 214) ng/mL"}, {"measurement": "Tmax", "setting": "[1]; [10]", "result": "4 (2 – 6) h"}, {"measurement": "Cmin n = 15", "setting": "[1]; rifabutin 300 mg OD alone, end of dosing interval 24 h, median (range)", "result": "6 (0 – 33) ng/mL"}, {"measurement": "Tmax", "setting": "[1]; [11]", "result": "3 (0 – 5) h"}]}, {"compound": "O=C1Nc2ccc(Cl)cc2[C@@](C#CC2CC2)(C(F)(F)F)O1", "note": "[EFV, efavirenz]", "values": [{"measurement": "Reduction of bioavailability by RMP", "setting": "[2]", "result": "approximately 25%"}]}, {"compound": "Cc1cccc(C)c1OCC(=O)N[C@@H](Cc1ccccc1)[C@@H](O)C[C@H](Cc1ccccc1)NC(=O)[C@H](C(C)C)N1CCCNC1=O", "note": "[Lopinavir]", "values": [{"measurement": "C0 (trough concentration)", "setting": "[3]; [12]", "result": "8739 (<50– 31171) ng/mL"}, {"measurement": "C0 (trough concentration)", "setting": "[3]; [13]", "result": "9155 (399–27567) ng/mL"}, {"measurement": "Effect of the different doses of rifabutin on plasma concentrations", "setting": "[3]", "result": "no significant effect"}]}, {"compound": "Cc1ccnc2c1NC(=O)c1cccnc1N2C1CC1", "note": "[NVP, nevirapine]", "values": [{"measurement": "Reduction of bioavailability by RMP", "setting": "[2]", "result": 35, "unit": "%"}]}, {"compound": "CO[C@H]1/C=C/O[C@@]2(C)Oc3c(C)c(O)c4c(O)c(c(/C=N/N5CCN(C)CC5)c(O)c4c3C2=O)NC(=O)/C(C)=C\\C=C\\[C@H](C)[C@H](O)[C@@H](C)[C@@H](O)[C@@H](C)[C@H](OC(C)=O)[C@@H]1C", "note": "[RMP, rifampicin]", "values": [{"measurement": "Reduction of drug concentrations by HIV infection", "setting": "[4]", "result": 39, "unit": "%"}]}, {"compound": "CO[C@H]1/C=C/O[C@@]2(C)Oc3c(C)c(O)c4c(c3C2=O)C2=NC3(CCN(CC(C)C)CC3)NC2=C(NC(=O)/C(C)=C\\C=C\\[C@H](C)[C@H](O)[C@@H](C)[C@@H](O)[C@@H](C)[C@H](OC(C)=O)[C@@H]1C)C4=O", "note": "[Rifabutin]", "values": [{"measurement": "Number of patients with AUCτ less than 4.5 µg.h/mL", "setting": "[1]; 150 mg OD regimen with LPV/r", "result": "one"}, {"measurement": "Number of patients with AUCτ less than 4.5 µg.h/mL", "setting": "[1]; 150 mg TPW regimen with LPV/r", "result": "four"}, {"measurement": "Number of patients with Cmax less than 0.3 µg/mL", "setting": "[1]; 150 mg TPW regimen with LPV/r", "result": "one"}, {"measurement": "Number of patients with AUCτ less than 4.5 µg.h/mL", "setting": "[1]; 300 mg OD regimen alone", "result": "six"}, {"measurement": "Tmax", "setting": "[1]; human, plasma, oral, 150 mg", "result": 3, "unit": "h"}, {"measurement": "AUC", "setting": "[1]; human, plasma, oral, 150 mg, rifabutin 150 mg OD with lopinavir/ritonavir, τ 24 h, median (range)", "result": 7290, "unit": "ng·h/mL"}, {"measurement": "AUC", "setting": "[1]; human, plasma, oral, 150 mg, rifabutin 150 mg TPW with lopinavir/ritonavir, τ 48 h, median (range)", "result": 7340, "unit": "ng·h/mL"}, {"measurement": "Cmax", "setting": "[1]; human, plasma, oral, 150 mg, rifabutin 150 mg OD with lopinavir/ritonavir, median (range)", "result": 671, "unit": "ng/mL"}, {"measurement": "Cmax", "setting": "[1]; human, plasma, oral, 150 mg, rifabutin 150 mg TPW with lopinavir/ritonavir, median (range)", "result": 544, "unit": "ng/mL"}, {"measurement": "AUC", "setting": "[1]; human, plasma, oral, 300 mg, rifabutin 300 mg OD alone, τ 24 h, median (range)", "result": 5640, "unit": "ng·h/mL"}, {"measurement": "Cmax", "setting": "[1]; human, plasma, oral, 300 mg, rifabutin 300 mg OD alone, steady state, median (range)", "result": 792, "unit": "ng/mL"}, {"measurement": "concentration at 24 h", "setting": "[1]; human, plasma, oral, Cmin n = 15, rifabutin 150 mg OD with lopinavir/ritonavir, end of dosing interval 24 h, median (range)", "result": 161, "unit": "ng/mL"}, {"measurement": "concentration at 48 h", "setting": "[1]; human, plasma, oral, Cmin n = 15, rifabutin 150 mg TPW with lopinavir/ritonavir, end of dosing interval 48 h, median (range)", "result": 54, "unit": "ng/mL"}, {"measurement": "concentration at 24 h", "setting": "[1]; human, plasma, oral, Cmin n = 15, rifabutin 300 mg OD alone, end of dosing interval 24 h, median (range)", "result": 61, "unit": "ng/mL"}, {"measurement": "concentration at 24 h", "setting": "[1]; human, plasma, oral, Cmin n = 25, rifabutin 150 mg OD with lopinavir/ritonavir, end of dosing interval 24 h, median (range)", "result": 169, "unit": "ng/mL"}, {"measurement": "concentration at 24 h", "setting": "[1]; human, plasma, oral, Cmin n = 25, rifabutin 300 mg OD alone, end of dosing interval 24 h, median (range)", "result": 79, "unit": "ng/mL"}, {"measurement": "AUCτ geometric mean ratio (90% CI)", "setting": "[1]; rifabutin 150 mg OD plus LPV/r (AUC24h) vs rifabutin 300 mg OD alone", "result": "1.32 (1.16;1.51)"}, {"measurement": "C0 geometric mean ratio (90% CI)", "setting": "[1]; [14]", "result": "2.61 (2.13;3.19)"}, {"measurement": "Cave geometric mean ratio (90% CI)", "setting": "[1]; [14]", "result": "1.32 (1.16;1.51)"}, {"measurement": "Cmax geometric mean ratio (90% CI)", "setting": "[1]; [14]", "result": "0.88 (0.75;1.04)"}, {"measurement": "Cave (AUCτ/τ)", "setting": "[1]; [8]", "result": "304 (147–521) ng/mL"}, {"measurement": "C0", "setting": "[1]; [8]", "result": "180 (121 – 310) ng/mL"}, {"measurement": "AUCτ geometric mean ratio (90% CI)", "setting": "[1]; rifabutin 150 mg TPW plus LPV/r (AUC48h) vs rifabutin 300 mg OD alone", "result": "1.12 (0.92;1.37)"}, {"measurement": "C0 geometric mean ratio (90% CI)", "setting": "[1]; [9]", "result": "0.94 (0.73;1.21)"}, {"measurement": "Cave geometric mean ratio (90% CI)", "setting": "[1]; [9]", "result": "0.56 (0.46;0.69)"}, {"measurement": "Cmax geometric mean ratio (90% CI)", "setting": "[1]; [9]", "result": "0.65 (0.51;0.83)"}, {"measurement": "Decrease in average steady state concentration (Cave)", "setting": "[1]; rifabutin 150 mg TPW with LPV/r compared with rifabutin 300 mg alone", "result": 44, "unit": "%"}, {"measurement": "Decrease in Cmax", "setting": "[1]; rifabutin 150 mg TPW with LPV/r vs rifabutin monotherapy", "result": 35, "unit": "%"}, {"measurement": "Cave (AUCτ/τ)", "setting": "[1]; [10]", "result": "153 (30–227) ng/mL"}, {"measurement": "Tmax", "setting": "[1]; [10]", "result": "3 (0 – 5) h"}, {"measurement": "C0", "setting": "[1]; [10]", "result": "70 (25 – 413) ng/mL"}, {"measurement": "Mean increase in average steady state concentration (Cave)", "setting": "[1]; rifabutin 150 mg daily with LPV/r compared with rifabutin 300 mg alone", "result": 32, "unit": "%"}, {"measurement": "Cave (AUCτ/τ)", "setting": "[1]; [11]", "result": "235 (113–370) ng/mL"}, {"measurement": "C0", "setting": "[1]; [11]", "result": "74 (13 – 161) ng/mL"}, {"measurement": "Bioequivalence of Cave with rifabutin alone (90% CI within 0.80 to 1.25)", "setting": "[1]; the two tested dosing regimens (150 mg OD, 150 mg TPW) combined with lopinavir/ritonavir", "result": "failed to show bioequivalence"}, {"measurement": "Uveitis", "setting": "[5]; 33 enrolled patients", "result": "no uveitis"}, {"measurement": "Cases of neutropenia", "setting": "[5]; 33 enrolled patients, one grade 3, none grade 4", "result": 4}, {"measurement": "Total adverse events (all grades together)", "setting": "[5]; 33 enrolled patients, rifabutin-based TB treatment with d4T/3TC/LPV/r, whole follow-up", "result": 124}, {"measurement": "Hepatic events with raised levels of liver enzymes", "setting": "[5]; events occurring in 25 patients, 33 in the first 2 months, 23 after rifabutin was stopped", "result": 56}, {"measurement": "AUCτ, median", "setting": "[6]; 300 mg OD dose", "result": 3053, "unit": "ng·h/mL"}, {"measurement": "Patients with areas under the curve less than 4.5 µg.h/mL", "setting": "[6]; intermittent dose (three times a week) with LPV/r", "result": "over 85%"}]}, {"compound": "CC(C)c1nc(CN(C)C(=O)N[C@H](C(=O)N[C@@H](Cc2ccccc2)C[C@H](O)[C@H](Cc2ccccc2)NC(=O)OCc2cncs2)C(C)C)cs1", "note": "[Ritonavir]", "values": [{"measurement": "C0 (trough concentration)", "setting": "[3]; [12]", "result": "303 (25–680) ng/mL"}, {"measurement": "C0 (trough concentration)", "setting": "[3]; [13]", "result": "314 (25– 569) ng/mL"}, {"measurement": "C0 (trough concentration)", "setting": "[3]; [15]", "result": "257 (25–680) ng/mL"}, {"measurement": "Cmax", "setting": "[3]; [15]", "result": "816 (405–2484) ng/ml"}, {"measurement": "Effect of the different doses of rifabutin on plasma concentrations", "setting": "[3]", "result": "no significant effect"}]}]}
